According to PMC8989888, “Development of optimized drug-like small molecule inhibitors of the SARS-CoV-2 3CL protease for treatment of COVID-19” (Nature Communications, 2022):
Several values for one entry are separate records, joined by “and”; a condition that tells them apart may be missing. Identical values can stand only once.

Tested on: SARS-CoV-2
Test: microbe, parasite or virus in culture
Type: cell-based

SMILES | inhibition of SARS-CoV-2 (Figure S17A dose-response, replicate values)
CC(C)C[C@H](NC(=O)OCc1cccc(Cl)c1)C(=O)N[C@@H](C[C@@H]1CCNC1=O)C(O)S(=O)(=O)O (stereo partly shown) [EB46] | 0 (10×) and 100 (6×) and 37.5 (2×) and 50 and 12.5 (2×)
O=C(N[C@@H](CC1CCCCC1)C(=O)N[C@@H](C[C@@H]1CCNC1=O)C(O)S(=O)(=O)O)OCc1cccc(Cl)c1 (stereo partly shown) [EB48] | 0 (11×) and 68.75 and 75 and 93.75 and 25 (3×) and 50 and 37.5 and 12.5 (2×)
CC(C)C[C@H](NC(=O)OCc1ccccc1Cl)C(=O)N[C@@H](C[C@@H]1CCNC1=O)C(O)S(=O)(=O)O (stereo partly shown) [EB54] | 0 (6×) and 100 (6×) and 50 (3×) and 12.5 (4×) and 25 (2×)
CC(C)C[C@H](NC(=O)OCc1cccc2ccccc12)C(=O)N[C@@H](C[C@@H]1CCNC1=O)C(O)S(=O)(=O)O (stereo partly shown) [EB55] | 0 (10×) and 100 (4×) and 93.75 (2×) and 12.5 (5×)
CC(C)C[C@H](NC(=O)OCc1ccc2ccccc2c1)C(=O)N[C@@H](C[C@@H]1CCNC1=O)C(O)S(=O)(=O)O (stereo partly shown) [EB56] | 0 (5×) and 12.5 (8×) and 93.75 (3×) and 87.5 (3×) and 50 and 25
CC(C)CC(NC(=O)OCc1ccccc1)C(=O)NC(CC1CCNC1=O)C(O)S(=O)(=O)O (stereo not shown) [GC376, reference compound] | 0 (14×) and 87.5 and 93.75 and 100 and 37.5 and 62.5 and 68.75 and 12.5
O=C(N[C@@H](CC1CCCCC1)C(=O)N[C@@H](C[C@@H]1CCNC1=O)C(O)S(=O)(=O)O)OCc1ccccc1 (stereo partly shown) [SL-4-241] | 0 (14×) and 100 (2×) and 81.25 and 25 (2×) and 12.5 (2×)
